Reference: BindingDB's records for doi:10.1016/S0960-894X(00)80622-8 (1992)

Experiment: Compound was evaluated for inhibition against Phospholipase A2 of Croatalus adamanteus

IC50, > 1000 µM:
CC(=O)ON(C=CC(=O)c1ccc(F)cc1)Cc1ccccc1 [1-(4-fluorophenyl)-3-benzyl-3-acetyloxyamino-propenone]
O=C(/C=C\N(O)C1CCCCC1)c1ccc(F)cc1
CON(/C=C\C(=O)c1ccc(F)cc1)Cc1ccccc1 [(Z)-3-(Benzyl-methoxy-amino)-1-(4-fluoro-phenyl)-propenone]
